Experimental data published in ChEMBL document CHEMBL4257548, “Phenothiazine antioxidants increase mitochondrial biogenesis and frataxin levels in Friedreich's ataxia cells” (Medchemcomm, 2018).
Activity calls are given as the source filed them. No cut-off for these calls is given here.

Columns and labels:
GM16216 [1] = experiment: Effect on frataxin expression in human GM16216 cells at 50 nM after 48 hrs by ELISA relative to control; format: functional
GM15850 [2] = experiment: Induction of mitochondrial biogenesis in human GM15850 cells assessed as ratio of COX1 to SDH-A protein levels at 250 after 24 hrs by ELISA relative to control; format: functional
GM16216 [3] = experiment: Restoration of total aconitase activity in human GM16216 cells at 50 nM after 5 days by colorimetric method relative to control; format: functional
GM15850 [4] = experiment: Effect on frataxin expression in human GM15850 cells at 250 nM after 24 hrs by ELISA relative to control; format: functional
GM15850 [5] = experiment: Induction of mitochondrial biogenesis in human GM15850 cells assessed as ratio of COX1 to SDH-A protein levels at 250 after 48 hrs by ELISA relative to control; format: functional
GM15850 [6] = experiment: Induction of mitochondrial biogenesis in human GM15850 cells assessed as ratio of COX1 to SDH-A protein levels at 50 after 48 hrs by ELISA relative to control; format: functional
GM16216 [7] = experiment: Induction of mitochondrial biogenesis in human GM16216 cells assessed as ratio of COX1 to SDH-A protein levels at 50 after 48 hrs by ELISA relative to control; format: functional
GM16216 [8] = experiment: Induction of mitochondrial biogenesis in human GM16216 cells assessed as ratio of COX1 to SDH-A protein levels at 250 after 24 hrs by ELISA relative to control; format: functional
GM15850 [9] = experiment: Restoration of total aconitase activity in human GM15850 cells at 250 nM after 5 days by colorimetric method relative to control; format: functional
GM16216 [10] = experiment: Induction of mitochondrial biogenesis in human GM16216 cells assessed as ratio of COX1 to SDH-A protein levels at 250 after 48 hrs by ELISA relative to control; format: functional
GM15850 [11] = experiment: Effect on frataxin expression in human GM15850 cells at 50 nM after 48 hrs by ELISA relative to control; format: functional
GM16216 [12] = experiment: Effect on frataxin expression in human GM16216 cells at 50 nM after 24 hrs by ELISA relative to control; format: functional
GM16216 [13] = experiment: Induction of mitochondrial biogenesis in human GM16216 cells assessed as ratio of COX1 to SDH-A protein levels at 50 after 24 hrs by ELISA relative to control; format: functional
GM15850 [14] = experiment: Effect on frataxin expression in human GM15850 cells at 250 nM after 48 hrs by ELISA relative to control; format: functional
GM15850 [15] = experiment: Restoration of total aconitase activity in human GM15850 cells at 50 nM after 5 days by colorimetric method relative to control; format: functional
GM16216 [16] = experiment: Effect on frataxin expression in human GM16216 cells at 250 nM after 24 hrs by ELISA relative to control; format: functional
GM15850 [17] = experiment: Induction of mitochondrial biogenesis in human GM15850 cells assessed as ratio of COX1 to SDH-A protein levels at 50 after 24 hrs by ELISA relative to control; format: functional
GM16216 [18] = experiment: Restoration of total aconitase activity in human GM16216 cells at 250 nM after 5 days by colorimetric method relative to control; format: functional
GM15850 [19] = experiment: Effect on frataxin expression in human GM15850 cells at 50 nM after 24 hrs by ELISA relative to control; format: functional
GM16216 [20] = experiment: Effect on frataxin expression in human GM16216 cells at 250 nM after 48 hrs by ELISA relative to control; format: functional
GM15850 [21] = experiment: Effect on mitochondrial membrane potential in human GM15850 cells assessed as intact mitochondrial membrane at 0.25 uM after 16 hrs by JC1 staining based flow cytometry (reference value: 87%); format: functional
GM15850 [22] = experiment: Effect on ATP production in human GM15850 cells at 0.1 uM after 24 hrs by Vialight reagent based luminescence assay; format: functional, cell-based
GM16216 [23] = experiment: Effect on mitochondrial membrane potential in human GM16216 cells assessed as intact mitochondrial membrane at 0.25 uM after 16 hrs by JC1 staining based flow cytometry (reference value: 87%); format: functional
GM15850 [24] = experiment: Cytotoxicity against human GM15850 cells at 2.5 uM after 24 to 48 hrs by live/dead staining-based flow cytometry; format: cell-based; settings: gm15850, 2.5 µM
GM16216 [25] = experiment: Effect on ATP production in human GM16216 cells at 0.1 uM after 24 hrs by Vialight reagent based luminescence assay; format: functional, cell-based
GM15850 [26] = experiment: Effect on mitochondrial membrane potential in human GM15850 cells assessed as loss of mitochondrial membrane potential at 0.25 uM after 16 hrs by JC1 staining based flow cytometry (reference value: 13%); format: functional
GM16216 [27] = experiment: Cytoprotection against DEM-induced toxicity in human GM16216 cells assessed as increase in cell viability at 0.5 to 2.5 uM pretreated for 16 hrs followed by DEM addition and measured after 5 hrs by live/dead staining based flow cytometry; format: functional
GM16216 [28] = experiment: Inhibition of ATP production in human GM16216 cells after 24 hrs by Vialight reagent based luminescence assay; format: functional, cell-based
GM16216 [29] = experiment: Cytotoxicity against human GM16216 cells at 2.5 uM after 24 to 48 hrs by live/dead staining-based flow cytometry; format: cell-based; settings: gm16216, 2.5 µM
GM15850 [30] = experiment: Inhibition of ATP production in human GM15850 cells after 24 hrs by Vialight reagent based luminescence assay; format: functional, cell-based
GM15850 [31] = experiment: Cytoprotection against DEM-induced toxicity in human GM15850 cells assessed as increase in cell viability at 0.5 to 2.5 uM pretreated for 16 hrs followed by DEM addition and measured after 5 hrs by live/dead staining based flow cytometry; format: functional
GM16216 [32] = experiment: Effect on mitochondrial membrane potential in human GM16216 cells assessed as loss of mitochondrial membrane potential at 0.25 uM after 16 hrs by JC1 staining based flow cytometry (reference value: 13%); format: functional
GM15850 [33] = experiment: Cytoprotection against DEM-induced toxicity in human GM15850 cells assessed as increase in cell viability at 0.1 to 2.5 uM pretreated for 16 hrs followed by DEM addition and measured after 5 hrs by live/dead staining based flow cytometry; format: functional
GM16216 [34] = experiment: Cytoprotection against DEM-induced toxicity in human GM16216 cells assessed as increase in cell viability at 0.1 to 2.5 uM pretreated for 16 hrs followed by DEM addition and measured after 5 hrs by live/dead staining based flow cytometry; format: functional

Row | SMILES | Activity (GM16216 [1]) [%] | Activity (GM15850 [2]) [%] | Activity (GM16216 [3]) [%] | Activity (GM15850 [4]) [%] | Activity (GM15850 [5]) [%] | Activity (GM15850 [6]) [%] | Activity (GM16216 [7]) [%] | Activity (GM16216 [8]) [%] | Activity (GM15850 [9]) [%] | Activity (GM16216 [10]) [%] | Activity (GM15850 [11]) [%] | Activity (GM16216 [12]) [%] | Activity (GM16216 [13]) [%] | Activity (GM15850 [14]) [%] | Activity (GM15850 [15]) [%] | Activity (GM16216 [16]) [%] | Activity (GM15850 [17]) [%] | Activity (GM16216 [18]) [%] | Activity (GM15850 [19]) [%] | Activity (GM16216 [20]) [%] | further results
1 | CCCCCCCCCCCCCCCN(CCCC)c1ccc2nc3ccc(=O)cc-3sc2c1 | 121 | 127 | 115 | 123 | 137 | 123 | 123 | 127 | 116 | 137 | 121 | 116 | 117 | 127 | 115 | 123 | 117 | 116 | 116 | 127 | –
2 | CCCCCCCCCCCCCc1cc2nc3ccc(N(C)C)cc3sc-2cc1=[N+](C)C.[I-] | – | – | – | – | – | – | – | – | – | – | – | – | – | – | – | – | – | – | – | – | Activity (GM15850 [21]): 82%; Activity (GM15850 [22]): inactive; Activity (GM16216 [23]): 82%; Activity (GM15850 [24]): Toxic; Activity (GM16216 [25]): inactive; Activity (GM15850 [26]): 18%; Activity (GM16216 [27]): Active; inhibition (GM16216 [28]): Dose-dependent effect; Activity (GM16216 [29]): Toxic; inhibition (GM15850 [30]): Dose-dependent effect; Activity (GM15850 [31]): Active; Activity (GM16216 [32]): 18%
3 | CN(C)c1ccc2nc3ccc(=O)cc-3sc2c1 | 113 | 117 | 110 | 114 | 131 | 122 | 122 | 117 | 113 | 131 | 113 | 111 | 115 | 115 | 110 | 114 | 115 | 113 | 111 | 115 | Activity (GM15850 [21]): 85%; Activity (GM16216 [23]): 85%; Activity (GM15850 [26]): 15%; Activity (GM15850 [33]): Active; Activity (GM16216 [34]): Active; Activity (GM16216 [32]): 15%
4 | CCCCCCCCCCCCCCCN(C)c1ccc2nc3ccc(=O)cc-3sc2c1 | 120 | 127 | 116 | 118 | 137 | 128 | 128 | 127 | 123 | 137 | 120 | 114 | 120 | 127 | 116 | 118 | 120 | 123 | 114 | 127 | –
